# Values joined by “and” are separate entries in the source; they are usually repeats but may differ in a detail not shown here. Identical values can stand only once.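 Dose response: 5 concentrations. Exposure: 48 h. Format: 96-well plates. Endpoint: linear interpolation; highest concentration if not reached. GI50 is the concentration that inhibits growth by half. Definition used: TGI = concentration required for complete inhibition of growth.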
# Experiments:
# Test in all cases: DTP human tumour cell line panel, 48 h
# [1] = test system: SW-620 colon
# [2] = test system: U251 CNS
# [3] = test system: MDA-MB-231 breast
# [4] = test system: DU-145 prostate
# [5] = test system: SK-MEL-2 melanoma
# [6] = test system: EKVX NSCLC
# [7] = test system: SN12C renal
# [8] = test system: UACC-257 melanoma
# [9] = test system: COLO 205 colon
# [10] = test system: UACC-62 melanoma
SMILES,GI50 [1],TGI [1],GI50 [2],TGI [2],GI50 [3],TGI [3],GI50 [4],TGI [4],GI50 [5],TGI [5],GI50 [6],TGI [6],GI50 [7],TGI [7],GI50 [8],TGI [8],GI50 [9],TGI [9],GI50 [10],TGI [10]
CCn1cc(/C=C2\Oc3cc(OCC#N)ccc3C2=O)c2cc(OC)ccc21,0.131 µM,> 100 µM,0.425 µM,> 48.7 µM,1.47 µM,> 77.3 µM,0.44 µM,> 62 µM,0.807 µM,> 68.5 µM,1.44 µM,> 100 µM,0.711 µM,> 100 µM,57.8 µM,> 100 µM,0.348 µM,4.12 µM,0.171 µM,> 53.4 µM
COc1cccc(CNc2ncnc3c2ncn3C2OC(CO)C(O)C2O)c1O (stereo not given),0.159 µM,> 100 µM,0.522 µM,> 100 µM,0.0302 µM,0.111 µM,0.0733 µM,1.22 µM,0.656 µM,> 100 µM,0.559 µM,> 59.6 µM,0.045 µM,> 100 µM,1.91 µM,> 100 µM,0.702 µM,31.1 µM,0.347 µM,> 31.8 µM
Clc1ccc(/C=C/c2ccc3ccccc3n2)cc1,0.553 µM,> 100 µM,0.441 µM,> 100 µM,2.3 µM,> 100 µM,2.23 µM,5.41 µM,0.311 µM,1.24 µM,2.79 µM,> 100 µM,2.06 µM,> 100 µM,1.83 µM,> 100 µM,1.46 µM,6.73 µM,1.47 µM,> 100 µM
C=C(CN1CCc2c([nH]c3ccccc23)C1)c1ccc(C(=O)Nc2ccccc2N)cc1,3.89 µM,28.5 µM,1.42 µM,7.73 µM,2.74 µM,12.9 µM,3.85 µM,13.9 µM,4.54 µM,22 µM,2.14 µM,13.5 µM,2.33 µM,9.98 µM,3.2 µM,11.6 µM,6.35 µM,20.9 µM,1.59 µM,7.43 µM
C=C1C(=O)O[C@H]2[C@H]1CC/C(COC(=O)N[C@H]1C[C@H](O[C@H]3C[C@](O)(C(=O)CO)Cc4c(O)c5c(c(O)c43)C(=O)c3c(OC)cccc3C5=O)O[C@@H](C)[C@H]1O)=C\CC[C@@]1(C)O[C@@H]21,1.15 µM,3 µM,4.87 µM,11.2 µM,3.21 µM,10.7 µM,12.1 µM,> 50 µM,7.97 µM,17 µM,23.3 µM,> 50 µM,5.07 µM,14.4 µM,7.17 µM,13.7 µM,1.75 µM,6.98 µM,1.69 µM,7.02 µM
Cc1cc(CCl)c(C)cc1CCl,1.34 µM,5.74 µM,1.47 µM,4.27 µM,4.08 µM,18.6 µM,0.733 µM,2.92 µM,3.27 µM,13.3 µM,2.08 µM,5.49 µM,0.605 µM,13.6 µM,2.15 µM,5.29 µM,1.53 µM,3.11 µM,1.93 µM,7.59 µM
COc1ccc2c(c1)CN([C@@H](C)[C@H]1CC[C@H]3[C@@H]4CC[C@H]5C[C@@H](O)CC[C@]5(C)[C@H]4CC[C@]13C)CO2,,> 23.6 µM,,3.35 µM,,5.19 µM,,13.7 µM,,3.83 µM,,14.7 µM,,22.6 µM,,6.31 µM,,3.85 µM,,3.88 µM
CN(C)N1C(=O)SCC(c2ccccc2)(c2ccccc2)C1=O,,> 100 µM,,> 100 µM,,> 100 µM,,> 100 µM,,> 100 µM,,> 100 µM,,> 100 µM,,> 100 µM,,> 100 µM,,> 100 µM
COc1cc(F)ccc1-c1cc(Nc2cc(CS(C)(=N)=O)ccn2)ncc1F (stereo not given),0.0559 µM,> 33.1 µM,0.0683 µM,> 100 µM,0.0974 µM,> 100 µM,0.0773 µM,> 100 µM,0.135 µM,0.437 µM,0.153 µM,8.63 µM,0.0583 µM,> 100 µM,0.261 µM,> 100 µM,0.0333 µM,0.17 µM,0.0555 µM,0.342 µM
CCCC1(CN2c3ccccc3Sc3ccc(Cl)cc32)CCN(CC)C1 (stereo not given),1.7 µM,3.31 µM,1.66 µM,3.16 µM,1.88 µM,3.55 µM,1.81 µM,3.37 µM,2.3 µM,4.28 µM,1.77 µM,3.55 µM,3.03 µM,8.74 µM,1.77 µM,3.56 µM,1.64 µM,3.3 µM,1.92 µM,3.6 µM
CCCCCCNCCCNc1c2cc(OC)ccc2nc2cccc([N+](=O)[O-])c12,0.132 µM,4.19 µM and 1.3 µM,0.0407 µM,,0.247 µM,0.481 µM and 1.02 µM,0.162 µM,0.338 µM and 1.36 µM,0.048 µM,0.209 µM and 0.199 µM,1.35 µM,0.427 µM and 3.32 µM,0.132 µM,0.421 µM and 0.343 µM,0.395 µM,1.4 µM and 1.47 µM,0.143 µM,0.648 µM,0.186 µM,0.305 µM and 0.412 µM
Nc1nc(N)c2cc(Sc3ccc4ccccc4c3)ccc2n1,,1.91 µM,,3.38 µM,,5.28 µM,,6.01 µM,1.68 µM,3.42 µM,,14.5 µM,,8.93 µM,,4.61 µM,,2.91 µM,,6.09 µM
O=C(NN1C(=O)CSC1c1cccc(Cl)c1)C(O)c1ccccc1 (stereo not given),> 100 µM,> 100 µM,59.2 µM,> 100 µM,87.7 µM,> 100 µM,83.4 µM,> 100 µM,> 100 µM,> 100 µM,64.5 µM,> 100 µM,> 100 µM,> 100 µM,> 100 µM,> 100 µM,> 100 µM,> 100 µM,23.1 µM,> 100 µM

# From PubChem BioAssay (NCI)
